Measured values taken from patent publication US20230041563A1, “N-(1,3,4-OXADIAZOL-2-YL)ARYLCARBOXAMIDES OR SALTS THEREOF, PREPARATION METHODS, HERBICIDAL COMPOSITIONS AND USES THEREOF” (priority 2018, published 2023).

Tests used:
Assay in all cases: Weeding effect in post-emergence stage (greenhouse pot spray)
Assay type in all cases: in vivo
Digitaria sanguinalis = test system: Digitaria sanguinalis
From the text: (§1) The activity level criteria for plant damage (i.e., growth control rate) are as follows:
(§2) The above growth control rates are fresh weight control rates.
(§3) Experiment on weeding effect in post-emergence stage: monocotyledonous and dicotyledonous weed seeds (Descurainia sophia, Capsella bursa-pastoris, Abutilon theophrasti, Galium aparine, Stellaria media, Lithospermum arvense, rorippa indica, Alopecurus aequalis, Beckmannia syzigachne, Sclerochloa dura, Phleum paniculatum, Bromus japonicus, Aegilops tauschii, Phalaris arundinacea, Amaranthus retroflexus, Chenopodiaceae, Commelina communis, Sonchus arvensis, convolvulus arvensis, Cirsium setosum, Solanum nigrum, Acalypha australis, Digitaria sanguinalis, Echinochloa crusgalli, Setaria viridis, Setaria glauca, Leptochloa chinensis, Monochoria vaginalis, Sagittaria trifolia, Scirpus juncoides, Cyperus rotundus, Cyperus iria, Cyperus difformis, Fimbristylis, Portulaca oleracea, Xanthium sibiricum, Pharbitis nil) and major crop seeds (wheat, corn, rice, soybean, cotton, oilseed rape, millet, sorghum, potato, sesame, ricinus) were placed in plastic pots filled with soil, then covered with 0.5-2 cm of soil, allowed to grow in a good greenhouse environment. After 2 weeks of sowing, the test plants were treated in the 2 to 3 leaf stage. The tested compounds of the present invention were respectively dissolved in acetone, then added with Tween 80 and 1.5 liter/ha of emulsifiable concentrate of methyl oleate as synergist, diluted with a certain amount of water to obtain a solution with a certain concentration, and sprayed with a spray tower onto the plants. After the application, the plants were cultured for 3 weeks in the greenhouse, and then the experimental results of the weeding were counted. […]

Setaria viridis = test system: Setaria viridis
From the text: as §1, §2, §3

Echinochloa crusgalli = test system: Echinochloa crusgalli
From the text: as §1, §2, §3

Amaranthus retroflexus = test system: Amaranthus retroflexus
From the text: as §1, §2
Experiment on weeding effect in post-emergence stage: monocotyledonous and dicotyledonous weed seeds (Descurainia sophia, Capsella bursa-pastoris, Abutilon theophrasti, Galium aparine, Stellaria media, Lithospermum arvense, rorippa indica, Alopecurus aequalis, Beckmannia syzigachne, Sclerochloa dura, Phleum paniculatum, Bromus japonicus, Aegilops tauschii, Phalaris arundinacea, Amaranthus retroflexus, Chenopodiaceae, Commelina communis, Sonchus arvensis, convolvulus arvensis, Cirsium setosum, Solanum nigrum, Acalypha australis, Digitaria sanguinalis, Echinochloa crusgalli, Setaria viridis, Setaria glauca, Leptochloa chinensis, Monochoria vaginalis, Sagittaria trifolia, Scirpus juncoides, Cyperus rotundus, Cyperus iria, Cyperus difformis, Fimbristylis, Portulaca oleracea, Xanthium sibiricum, Pharbitis nil) and major crop seeds (wheat, corn, rice, soybean, cotton, oilseed rape, millet, sorghum, potato, sesame, ricinus) were placed in plastic pots filled with soil, then covered with 0.5-2 cm of soil, allowed to grow in a good greenhouse environment. After 2 weeks of sowing, the test plants were treated in the 2 to 3 leaf stage. The tested compounds of the present invention were respectively dissolved in acetone, then added with Tween 80 and 1.5 liter/ha of emulsifiable concentrate of methyl oleate as synergist, diluted with a certain amount of water to obtain a solution with a certain concentration, and sprayed with a spray tower onto the plants. After the application, the plants were cultured for 3 weeks in the greenhouse, and then the experimental results of the weeding were counted. The doses of the used compounds were 500, 250, 125, 60, 15 g a.i./ha, and the averages were obtained by repeating for three times.

Abutilon theophrasti = test system: Abutilon theophrasti
From the text: as §1, §2, §3

CC(C)[S@+]([O-])c1c(C(F)(F)F)ccc(C(=O)Nc2nnco2)c1F [3-11 (R-configuration)]
Digitaria sanguinahs (activity level) (Digitaria sanguinalis; Table 3, dose 125 g a.i./ha): 5 (Level 5: growth control rate is above 85%) | Setaria viridis (activity level) (Setaria viridis; Table 3, dose 125 g a.i./ha): 5 (Level 5: growth control rate is above 85%) | Echinochloa crusgali (activity level) (Echinochloa crusgalli; Table 3, dose 125 g a.i./ha): 5 (Level 5: growth control rate is above 85%)

CCCC[S@+]([O-])c1c(C(F)(F)F)ccc(C(=O)Nc2nnco2)c1F [3-14 (R-configuration)]
Digitaria sanguinahs (activity level) (Digitaria sanguinalis; Table 3, dose 60 g a.i./ha): 5 (Level 5: growth control rate is above 85%) | Setaria viridis (activity level) (Setaria viridis; Table 3, dose 60 g a.i./ha): 5 (Level 5: growth control rate is above 85%) | Echinochloa crusgali (activity level) (Echinochloa crusgalli; Table 3, dose 60 g a.i./ha): 5 (Level 5: growth control rate is above 85%)

CC(C)C[S@@+]([O-])c1c(C(F)(F)F)ccc(C(=O)Nc2nnco2)c1F [3-20 (R-configuration)]
Digitaria sanguinahs (activity level) (Digitaria sanguinalis; Table 3, dose 125 g a.i./ha): 5 (Level 5: growth control rate is above 85%) | Setaria viridis (activity level) (Setaria viridis; Table 3, dose 125 g a.i./ha): 5 (Level 5: growth control rate is above 85%) | Echinochloa crusgali (activity level) (Echinochloa crusgalli; Table 3, dose 125 g a.i./ha): 5 (Level 5: growth control rate is above 85%)

O=C(Nc1nnco1)c1ccc(C(F)(F)F)c([S@@+]([O-])CCC(F)(F)F)c1F [3-52 (R-configuration)]
Digitaria sanguinahs (activity level) (Digitaria sanguinalis; Table 3, dose 125 g a.i./ha): 5 (Level 5: growth control rate is above 85%) | Setaria viridis (activity level) (Setaria viridis; Table 3, dose 125 g a.i./ha): 5 (Level 5: growth control rate is above 85%) | Echinochloa crusgali (activity level) (Echinochloa crusgalli; Table 3, dose 125 g a.i./ha): 5 (Level 5: growth control rate is above 85%)

COCC[S@+]([O-])c1c(C(F)(F)F)ccc(C(=O)Nc2nnco2)c1F [3-57 (R-configuration)]
Digitaria sanguinahs (activity level) (Digitaria sanguinalis; Table 3, dose 125 g a.i./ha): 5 (Level 5: growth control rate is above 85%) | Setaria viridis (activity level) (Setaria viridis; Table 3, dose 125 g a.i./ha): 5 (Level 5: growth control rate is above 85%) | Echinochloa crusgali (activity level) (Echinochloa crusgalli; Table 3, dose 125 g a.i./ha): 5 (Level 5: growth control rate is above 85%)

CCC[S@@+]([O-])c1c(C(F)(F)F)ccc(C(=O)Nc2nnc(C(C)C)o2)c1F [6-8 (R-configuration)]
Digitaria sanguinahs (activity level) (Digitaria sanguinalis; Table 3, dose 250 g a.i./ha): 5 (Level 5: growth control rate is above 85%) | Setaria viridis (activity level) (Setaria viridis; Table 3, dose 250 g a.i./ha): 5 (Level 5: growth control rate is above 85%) | Echinochloa crusgali (activity level) (Echinochloa crusgalli; Table 3, dose 250 g a.i./ha): 5 (Level 5: growth control rate is above 85%)

C=CCSc1c(C(F)(F)F)ccc(C(=O)Nc2nnc(C)o2)c1F [Compound 1-40]
Amaranthus retroflexus (activity level) (Amaranthus retroflexus; Table 2, dose 500 g a.i./ha): 5 (Level 5: growth control rate is above 85%) | Digitaria sanguinalis (activity level) (Digitaria sanguinalis; Table 2, dose 500 g a.i./ha): 5 (Level 5: growth control rate is above 85%) | Echinochloa crusgah (activity level) (Echinochloa crusgalli; Table 2, dose 500 g a.i./ha): 5 (Level 5: growth control rate is above 85%)

Cc1nnc(NC(=O)c2ccc(C(F)(F)F)c([S+]([O-])CCC3CC3)c2F)o1 (stereo not drawn) [Compound 1-395]
Amaranthus retroflexus (activity level) (Amaranthus retroflexus; Table 2, dose 500 g a.i./ha): 5 (Level 5: growth control rate is above 85%) | Abutilion theophrasti (activity level) (Abutilon theophrasti; Table 2, dose 500 g a.i./ha): 5 (Level 5: growth control rate is above 85%) | Digitaria sanguinalis (activity level) (Digitaria sanguinalis; Table 2, dose 500 g a.i./ha): 5 (Level 5: growth control rate is above 85%) | Echinochloa crusgah (activity level) (Echinochloa crusgalli; Table 2, dose 500 g a.i./ha): 5 (Level 5: growth control rate is above 85%)

C#CCC[S+]([O-])c1c(C(F)(F)F)ccc(C(=O)Nc2nnc(C)o2)c1F (stereo not drawn) [Compound 1-401]
Amaranthus retroflexus (activity level) (Amaranthus retroflexus; Table 2, dose 250 g a.i./ha): 5 (Level 5: growth control rate is above 85%) | Abutilion theophrasti (activity level) (Abutilon theophrasti; Table 2, dose 250 g a.i./ha): 5 (Level 5: growth control rate is above 85%) | Digitaria sanguinalis (activity level) (Digitaria sanguinalis; Table 2, dose 250 g a.i./ha): 5 (Level 5: growth control rate is above 85%) | Echinochloa crusgah (activity level) (Echinochloa crusgalli; Table 2, dose 250 g a.i./ha): 5 (Level 5: growth control rate is above 85%)

CC#CC[S+]([O-])c1c(C(F)(F)F)ccc(C(=O)Nc2nnc(C)o2)c1F (stereo not drawn) [Compound 1-402]
Amaranthus retroflexus (activity level) (Amaranthus retroflexus; Table 2, dose 250 g a.i./ha): 5 (Level 5: growth control rate is above 85%) | Abutilion theophrasti (activity level) (Abutilon theophrasti; Table 2, dose 250 g a.i./ha): 5 (Level 5: growth control rate is above 85%) | Digitaria sanguinalis (activity level) (Digitaria sanguinalis; Table 2, dose 250 g a.i./ha): 5 (Level 5: growth control rate is above 85%) | Echinochloa crusgah (activity level) (Echinochloa crusgalli; Table 2, dose 250 g a.i./ha): 5 (Level 5: growth control rate is above 85%)

Cc1nnc(NC(=O)c2ccc(C(F)(F)F)c([S+]([O-])CCC(F)(C(F)(F)F)C(F)(F)F)c2F)o1 (stereo not drawn) [Compound 1-413]
Amaranthus retroflexus (activity level) (Amaranthus retroflexus; Table 2, dose 500 g a.i./ha): 5 (Level 5: growth control rate is above 85%) | Digitaria sanguinalis (activity level) (Digitaria sanguinalis; Table 2, dose 500 g a.i./ha): 5 (Level 5: growth control rate is above 85%) | Echinochloa crusgah (activity level) (Echinochloa crusgalli; Table 2, dose 500 g a.i./ha): 5 (Level 5: growth control rate is above 85%)
